Measured values from patent US5672710A, “Sulfides, sulfoxides and sulfones disubstituted with a tetrahydronaphthalenyl, chromanyl, thiochromanyl or tetrahydroquinolinyl and substituted phenyl or heteroaryl group, having retinoid-like biological activity” (priority 1995, dated 1997).

What was measured:
[1] = molecular target: T1, RARβ (Homo sapiens, UniProt P10826); test: Ligand binding assay, RARβ
T1 construct: expressed in transfected cells; host or cells: CV1
T1 sequence (P10826 1-448 isoform P10826-2): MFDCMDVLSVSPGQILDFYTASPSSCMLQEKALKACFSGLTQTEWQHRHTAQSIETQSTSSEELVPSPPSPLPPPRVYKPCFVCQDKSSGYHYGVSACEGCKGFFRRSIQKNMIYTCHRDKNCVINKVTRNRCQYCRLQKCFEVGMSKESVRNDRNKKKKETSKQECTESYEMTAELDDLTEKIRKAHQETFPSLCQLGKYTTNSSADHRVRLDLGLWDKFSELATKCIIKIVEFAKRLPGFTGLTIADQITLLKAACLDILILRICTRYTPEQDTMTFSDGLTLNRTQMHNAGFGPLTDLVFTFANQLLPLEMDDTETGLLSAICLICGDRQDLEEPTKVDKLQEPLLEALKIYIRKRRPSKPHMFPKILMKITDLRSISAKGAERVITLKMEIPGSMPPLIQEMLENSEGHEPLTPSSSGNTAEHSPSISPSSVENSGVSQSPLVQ
Source text: (§1) A holoreceptor transactivation assay and a ligand binding assay which measure the ability of the compounds of the invention to bind to the several retinoid receptor subtypes, respectively, are described in published PCT Application No. WO W093/11755 (particularly on pages 30-33 and 37-41) published on Jun. 24, 1993, the specification of which is also incorporated herein by reference. A description of the holoreceptor transactivation assay is also provided below.
(§2) CV1 cells (5,000 cells/well) were transfected with an RAR reporter plasmid MTV-TREp-LUC (50 ng) along with one of the […] expression vectors (10 ng) in an automated 96-well format by the calcium phosphate procedure of Heyman et al. Cell 68, 397-406. (8). For RXRα and RXR.GAMMA. transactivation assays, an RXR-responsive reporter plasmid CRBPII-tk-LUC (50 ng) along with the appropriate RXRexpression vectors (10 ng) was used substantially as described by Heyman et al. above, and Allegretto et al. J. Biol. Chem. 268, 26625-26633. For RXRβ transactivation assays, an RXR-responsive reporter plasmid CPRE-tk-LUC ([…]) along with RXRβ expression vector ([…]) was used as described in above. These reporters contain DRI elements from human CRBPII and certain DRI elements from promoter, respectively. (see Mangelsdorf et al. The Retinoids: Biology, Chemistry and Medicine, pp 319-349, Raven Press Ltd., New York and Heyman et al., cited above) (1, 8). A β-galactosidase (50 ng) expression vector was used as an internal control in the transfections to normalize for variations in transfection efficiency. The cells were transfected in triplicate for 6 hours, followed by incubation with retinoids for 36 hours, and the extracts were assayed for luciferase and β-galactosidase activities. The detailed experimental procedure for holoreceptor transactivations has been described in Heyman et al. above, and Allegretto et al. cited above. The results obtained in this assay in connection with examplary compounds in accordance with the present invention are expressed in EC50 numbers, as they are also in the chimeric receptor transactivation assay. The Heyman et al. Cell 68, 397-406, Allegretto et al. J. Biol. Chem. 268, 26625-26633, and Mangelsdorf et al. The Retinoids: Biology, Chemistry and Medicine, pp 319-349, Raven Press Ltd., New York, are expressly incorporated herein by reference. The results of ligand binding assay are expressed in Kd numbers. (See Cheng et al. Biochemical Pharmacology Vol. 22 pp 3099-3108, expressly incorporated herein by reference.)

[2] = molecular target: T2, RXRα (Homo sapiens, UniProt P19793); test: Ligand binding assay, RXRα
T2 construct: expressed in transfected cells; host or cells: CV1
T2 sequence (P19793 1-462): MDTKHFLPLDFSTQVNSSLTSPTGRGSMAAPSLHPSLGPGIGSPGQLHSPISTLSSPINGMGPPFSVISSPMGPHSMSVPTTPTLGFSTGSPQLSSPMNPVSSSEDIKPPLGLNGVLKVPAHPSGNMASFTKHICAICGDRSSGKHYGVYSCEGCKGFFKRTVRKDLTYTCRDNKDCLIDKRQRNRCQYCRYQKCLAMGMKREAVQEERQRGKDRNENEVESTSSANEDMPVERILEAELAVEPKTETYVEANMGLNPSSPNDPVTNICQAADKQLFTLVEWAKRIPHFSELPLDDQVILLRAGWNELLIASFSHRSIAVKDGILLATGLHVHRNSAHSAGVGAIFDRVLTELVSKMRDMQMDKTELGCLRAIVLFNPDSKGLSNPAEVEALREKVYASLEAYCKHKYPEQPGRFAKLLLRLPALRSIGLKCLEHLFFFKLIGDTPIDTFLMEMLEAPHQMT
Source text: as §1, §2

[3] = molecular target: T3, RARγ (Homo sapiens, UniProt P13631); test: Holoreceptor transactivation assay, RARγ; type: cell-based; settings: CV-1; CV1 cells; relative to all trans retinoic acid; read-out: Transactivation Assay Efficacy (% of RA activity), RARγ
T3 construct: expressed in transfected cells; host or cells: CV1
T3 sequence (P13631 1-454): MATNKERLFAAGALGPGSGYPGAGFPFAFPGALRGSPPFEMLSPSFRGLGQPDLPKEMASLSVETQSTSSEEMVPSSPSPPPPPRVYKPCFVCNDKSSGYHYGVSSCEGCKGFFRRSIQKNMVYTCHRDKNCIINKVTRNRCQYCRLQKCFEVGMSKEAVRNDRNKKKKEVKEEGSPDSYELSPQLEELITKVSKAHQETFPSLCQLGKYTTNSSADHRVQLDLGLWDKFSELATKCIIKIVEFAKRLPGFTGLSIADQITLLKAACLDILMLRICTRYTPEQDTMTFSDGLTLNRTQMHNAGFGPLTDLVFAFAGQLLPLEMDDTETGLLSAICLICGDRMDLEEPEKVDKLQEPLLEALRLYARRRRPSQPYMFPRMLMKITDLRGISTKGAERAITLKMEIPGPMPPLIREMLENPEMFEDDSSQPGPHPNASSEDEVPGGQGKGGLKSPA
Source text: as §1, §2

[4] = molecular target: T4, RARα (Homo sapiens, UniProt P10276); test: Ligand binding assay, RARα
T4 construct: expressed in transfected cells; host or cells: CV1
T4 sequence (P10276 1-462): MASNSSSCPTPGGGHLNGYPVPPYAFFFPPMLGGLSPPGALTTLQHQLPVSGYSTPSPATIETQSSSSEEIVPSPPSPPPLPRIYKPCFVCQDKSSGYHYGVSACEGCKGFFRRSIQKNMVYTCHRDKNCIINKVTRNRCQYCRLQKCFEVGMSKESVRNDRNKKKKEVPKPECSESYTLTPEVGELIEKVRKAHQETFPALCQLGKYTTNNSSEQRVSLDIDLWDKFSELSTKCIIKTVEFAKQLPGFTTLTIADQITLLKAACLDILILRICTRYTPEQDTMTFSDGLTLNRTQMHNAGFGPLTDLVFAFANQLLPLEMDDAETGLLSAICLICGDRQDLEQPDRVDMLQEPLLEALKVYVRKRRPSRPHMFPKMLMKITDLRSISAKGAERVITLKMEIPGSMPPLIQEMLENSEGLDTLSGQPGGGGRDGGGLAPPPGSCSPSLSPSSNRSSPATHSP
Source text: as §1, §2

Work on `Cc1cc2c(cc1S(=O)(=O)c1ccc(C(=O)O)cc1)C(C)(C)CCC2(C)C` [Compound 11, 4-(5,6,7,8-tetrahydro-3,5,5,8,8-pentamethyl-2-naphthylsulfonyl)benzoic acid] yielded a Kd [1] of over 1 µM, a Kd [2] of over 1 µM and an Emax [3] of 0%. The Kd [4] was over 1 µM.
`Cc1cc2c(cc1Sc1ncc(C(=O)O)s1)C(C)(C)CCC2(C)C` [Compound 15, 2-(5,6,7,8-Tetrahydro-3,5,5,8,8-pentamethyl-2-naphthylthio)-5-thiazolecarboxylic acid] gave a Kd [1] of over 1 µM, a Kd [2] of over 1 µM and an Emax [3] of 7%. It also gave a Kd [4] of over 1 µM.
Work on `Cc1cc2c(cc1Sc1ccc(C(=O)O)cc1)C(C)(C)CCC2(C)C` [Compound 7, 4-(5,6,7,8-tetrahydro-3,5,5,8,8-pentamethyl-2-Daphthylthio)benzoic acid] yielded a Kd [1] of over 1 µM, a Kd [2] of 0.296 µM and an Emax [3] of 11%. For the same molecule, the Kd [4] was over 1 µM.
`Cc1cc2c(cc1[S+]([O-])c1ccc(C(=O)O)cc1)C(C)(C)CCC2(C)C` (stereo not shown) [Compound 9, 4-(5,6,7,8-tetrahydro-3,5,5,8,8-pentamethyl-2-naphthylsulfoxy)benzoic acid] showed a Kd [1] of over 1 µM, a Kd [2] of over 1 µM and an Emax [3] of 3%. For the same molecule, the Kd [4] was over 1 µM.
`CC1(C)CCC(C)(C)c2cc(S(=O)(=O)c3ccc(C(=O)O)cc3)ccc21` [Compound 5, 4-(5,6,7,8-tetrahydro-5,5,8,8-tetramethyl-2-naphthylsulfonyl)benzoic acid] gave a Kd [1] of over 1 µM, a Kd [2] of over 1 µM and an Emax [3] of 0%. For the same molecule, the Kd [4] was over 1 µM.
With `CC1(C)CCC(C)(C)c2cc(Sc3ccc(C(=O)O)cc3)ccc21` [Compound 2] the Kd [1] was over 1 µM, the Kd [2] was over 1 µM and the Emax [3] was 37%. For the same molecule, the Kd [4] was over 1 µM.
`Cc1cc2c(cc1Sc1ccc(C(=O)O)cn1)C(C)(C)CCC2(C)C` [Compound 13] gave a Kd [1] of over 10 µM, a Kd [2] of 0.032 µM and an Emax [3] of 0%. For the same molecule, the Kd [4] was over 10 µM.
